Source: US11713338B2, “Cyclic peptides multimers targeting α-4-β-7 integrin” (priority 2016, dated 2023)

How the values were obtained:
[1] = biological target: T1, recombinant integrin α4β7 (Homo sapiens, UniProt P13612+P26010, DEL724-798); assay: Integrin α4β7—MAdCAM-1 ELISA competition assay; type: binding; conditions: read-out: ELISA α4β7 Assay IC50
T1 construct: purchased R&D Systems 5397-A3-050
T1 sequence (P13612 34-970 limits assumed): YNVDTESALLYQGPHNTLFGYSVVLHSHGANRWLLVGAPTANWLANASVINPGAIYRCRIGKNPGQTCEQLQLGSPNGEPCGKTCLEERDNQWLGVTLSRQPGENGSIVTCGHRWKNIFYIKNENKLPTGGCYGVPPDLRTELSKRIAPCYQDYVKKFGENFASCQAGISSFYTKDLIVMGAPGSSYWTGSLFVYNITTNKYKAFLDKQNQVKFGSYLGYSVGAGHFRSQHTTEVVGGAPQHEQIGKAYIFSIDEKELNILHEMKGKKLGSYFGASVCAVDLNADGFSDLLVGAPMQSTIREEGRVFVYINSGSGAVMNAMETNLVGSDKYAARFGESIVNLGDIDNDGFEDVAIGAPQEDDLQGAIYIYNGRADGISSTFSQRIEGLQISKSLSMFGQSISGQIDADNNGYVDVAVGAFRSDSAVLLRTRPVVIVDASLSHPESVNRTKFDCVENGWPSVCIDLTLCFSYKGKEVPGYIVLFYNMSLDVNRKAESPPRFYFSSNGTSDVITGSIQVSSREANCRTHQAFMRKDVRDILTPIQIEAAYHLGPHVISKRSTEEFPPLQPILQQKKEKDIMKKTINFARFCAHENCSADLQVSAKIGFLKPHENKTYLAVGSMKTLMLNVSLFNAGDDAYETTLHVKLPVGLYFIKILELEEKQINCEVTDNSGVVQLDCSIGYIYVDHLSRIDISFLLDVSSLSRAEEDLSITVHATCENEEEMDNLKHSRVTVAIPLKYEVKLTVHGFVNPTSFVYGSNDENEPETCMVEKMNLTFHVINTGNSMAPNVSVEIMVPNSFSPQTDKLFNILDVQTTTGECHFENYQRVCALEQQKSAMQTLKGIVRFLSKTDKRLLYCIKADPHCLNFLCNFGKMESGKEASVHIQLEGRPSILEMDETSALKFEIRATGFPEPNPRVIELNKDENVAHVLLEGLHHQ
T1 sequence (P26010 20-723 limits assumed): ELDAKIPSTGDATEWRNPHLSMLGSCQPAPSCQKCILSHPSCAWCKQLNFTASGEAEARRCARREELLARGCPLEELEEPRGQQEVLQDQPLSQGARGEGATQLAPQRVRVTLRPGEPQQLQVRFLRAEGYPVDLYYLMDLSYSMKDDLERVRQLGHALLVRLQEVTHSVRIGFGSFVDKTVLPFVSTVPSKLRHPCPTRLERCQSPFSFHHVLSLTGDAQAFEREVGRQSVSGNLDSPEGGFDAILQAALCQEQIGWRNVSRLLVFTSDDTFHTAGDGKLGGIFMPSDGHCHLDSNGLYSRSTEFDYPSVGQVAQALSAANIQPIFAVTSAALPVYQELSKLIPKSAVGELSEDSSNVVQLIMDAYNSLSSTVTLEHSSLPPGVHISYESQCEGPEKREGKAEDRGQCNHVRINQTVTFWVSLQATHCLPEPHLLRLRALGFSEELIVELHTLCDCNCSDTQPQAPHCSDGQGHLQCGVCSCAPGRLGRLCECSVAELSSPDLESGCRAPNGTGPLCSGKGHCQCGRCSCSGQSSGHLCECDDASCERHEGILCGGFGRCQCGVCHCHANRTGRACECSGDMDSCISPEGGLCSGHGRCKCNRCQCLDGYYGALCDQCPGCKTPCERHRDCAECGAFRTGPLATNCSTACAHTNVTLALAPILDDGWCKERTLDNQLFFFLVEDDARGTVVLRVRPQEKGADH
Procedure: Integrin α4β7—MAdCAM-1 ELISA Competition Assay
The plate was incubated at 40C overnight. […] The plate was then incubated for 1 hour at room temperature. The plate was washed three times with wash buffer (50 mM Tris, 100 mM NaCl, 1 mM MnCl2, 0.05% Tween). To each well, 50 μl of compound diluted in assay buffer was added by transfer from a compound serial dilution plate. […] The plate was incubated at room temperature with shaking (300 rpm) for 2 hours to reach binding equilibrium. […] The plate was incubated at room temperature for 1 hour under agitation.

[2] = biological target: T2, recombinant integrin α4β1 (Homo sapiens, UniProt P05556+P13612); assay: Integrin α4β1—VCAM-1 competition ELISA; type: binding; conditions: for ELISA Assay Ratio β1/β7: ratio of ELISA IC50s, α4β1 over α4β7; for IC50: read-out: ELISA α4β1 Assay IC50
T2 construct: purchased R&D Systems 5397-A3-050
T2 sequence (P05556 21-728 limits assumed, one chain of several): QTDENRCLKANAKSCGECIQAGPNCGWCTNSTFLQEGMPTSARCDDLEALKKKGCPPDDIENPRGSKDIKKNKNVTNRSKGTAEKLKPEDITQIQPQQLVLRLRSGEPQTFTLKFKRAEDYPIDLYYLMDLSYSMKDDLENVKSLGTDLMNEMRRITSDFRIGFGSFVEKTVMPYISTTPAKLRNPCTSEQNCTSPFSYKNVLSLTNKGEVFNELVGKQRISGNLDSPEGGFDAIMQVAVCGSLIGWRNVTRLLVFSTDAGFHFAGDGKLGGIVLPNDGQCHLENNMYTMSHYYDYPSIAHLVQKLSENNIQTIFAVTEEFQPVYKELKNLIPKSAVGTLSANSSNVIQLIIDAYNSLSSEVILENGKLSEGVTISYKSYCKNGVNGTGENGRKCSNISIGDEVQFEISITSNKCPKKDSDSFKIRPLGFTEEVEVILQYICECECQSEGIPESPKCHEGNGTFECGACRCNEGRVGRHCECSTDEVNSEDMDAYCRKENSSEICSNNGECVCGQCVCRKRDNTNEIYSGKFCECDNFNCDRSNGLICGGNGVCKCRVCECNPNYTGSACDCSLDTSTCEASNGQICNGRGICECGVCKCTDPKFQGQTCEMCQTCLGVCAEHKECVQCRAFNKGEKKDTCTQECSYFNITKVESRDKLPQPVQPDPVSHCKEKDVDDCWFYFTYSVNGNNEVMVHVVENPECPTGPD
In short: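 Compound dilutions added to coated plate and shaken at room temperature for 2 h (300 rpm) to binding equilibrium. Wash buffer: 50 mM Tris, 100 mM NaCl, 1 mM MnCl2, 0.05% Tween. Bound Fc-tagged ligand detected with anti-human IgG Fc-HRP, 1 h at room temperature.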

Row | SMILES | IC50 [1] [nM] | ELISA Assay Ratio β1/β7 [2] | IC50 [2] [nM]
1 | CC(C)C[C@@H]1NC(=O)c2ccc(-c3ccc(N4CCN(CC(=O)N5CCN(c6ccc(-c7ccc8cc7CNC(=O)[C@@H]7CCCN7[C@H](C(=O)NC(C)(C)C)[C@H](C)NC(=O)[C@H]([C@@H](C)O)NC(=O)[C@H](CC(=O)O)NC(=O)[C@H](CC(C)C)NC8=O)cc6)CC5)CC4)cc3)c(c2)CNC(=O)[C@@H]2CCCN2[C@H](C(=O)NC(C)(C)C)[C@H](C)NC(=O)[C@H]([C@@H](C)O)NC(=O)[C@H](CC(=O)O)NC1=O [Compound 481] | 7.1 | 0.2 | 1.6
2 | CC(C)C[C@@H]1NC(=O)c2ccc(-c3ccc(N4CCN(C(=O)CCOCCOCCNC(=O)CCCCCC(=O)NCCOCCOCCC(=O)N5CCN(c6ccc(-c7ccc8cc7CNC(=O)[C@@H]7CCCN7[C@H](C(=O)NC(C)(C)C)[C@H](C)NC(=O)[C@H]([C@@H](C)O)NC(=O)[C@H](CC(=O)O)NC(=O)[C@H](CC(C)C)NC8=O)cc6)CC5)CC4)cc3)c(c2)CNC(=O)[C@@H]2CCCN2[C@H](C(=O)NC(C)(C)C)[C@H](C)NC(=O)[C@H]([C@@H](C)O)NC(=O)[C@H](CC(=O)O)NC1=O [Compound 505] | 19 | 0.3 | 6.6
3 | CC(C)C[C@@H]1NC(=O)c2ccc(-c3ccc(N4CCN(C(=O)c5cc(-c6ccccc6)c(C(=O)N6CCN(c7ccc(-c8ccc9cc8CNC(=O)[C@@H]8CCCN8[C@H](C(=O)NC(C)(C)C)[C@H](C)NC(=O)[C@H]([C@@H](C)O)NC(=O)[C@H](CC(=O)O)NC(=O)[C@H](CC(C)C)NC9=O)cc7)CC6)cc5-c5ccccc5)CC4)cc3)c(c2)CNC(=O)[C@@H]2CCCN2[C@H](C(=O)NC(C)(C)C)[C@H](C)NC(=O)[C@H]([C@@H](C)O)NC(=O)[C@H](CC(=O)O)NC1=O [Compound 469] | 36 | 0.3 | 10
4 | CC(C)C[C@@H]1NC(=O)C[C@H](CCCCN)N(C)C(=O)[C@H](CCCCNC(=O)CCCCCCCC(=O)NCCCC[C@@H]2NC(=O)[C@@H]3CCCN3[C@H](C(=O)NC(C)(C)C)[C@H](C)NC(=O)[C@H]([C@@H](C)O)NC(=O)[C@H](CC(=O)O)NC(=O)[C@H](CC(C)C)NC(=O)C[C@H](CCCCN)N(C)C2=O)NC(=O)[C@@H]2CCCN2[C@H](C(=O)NC(C)(C)C)[C@H](C)NC(=O)[C@H]([C@@H](C)O)NC(=O)[C@H](CC(=O)O)NC1=O [Compound 533] | 5 | 1.2 | 6.2
5 | CC(C)C[C@@H]1NC(=O)c2ccc(-c3ccc(N4CCN(C(=O)c5cc(F)ccc5-c5ccc(F)cc5C(=O)N5CCN(c6ccc(-c7ccc8cc7CNC(=O)[C@@H]7CCCN7[C@H](C(=O)NC(C)(C)C)[C@H](C)NC(=O)[C@H]([C@@H](C)O)NC(=O)[C@H](CC(=O)O)NC(=O)[C@H](CC(C)C)NC8=O)cc6)CC5)CC4)cc3)c(c2)CNC(=O)[C@@H]2CCCN2[C@H](C(=O)NC(C)(C)C)[C@H](C)NC(=O)[C@H]([C@@H](C)O)NC(=O)[C@H](CC(=O)O)NC1=O [Compound 475] | 11 |  | 1.1
6 | CC(C)C[C@@H]1NC(=O)c2ccc(-c3ccc(N4CCN(C(=O)COCC(=O)N5CCN(c6ccc(-c7ccc8cc7CNC(=O)[C@@H]7CCCN7[C@H](C(=O)NC(C)(C)C)[C@H](C)NC(=O)[C@H]([C@@H](C)O)NC(=O)[C@H](CC(=O)O)NC(=O)[C@H](CC(C)C)NC8=O)cc6)CC5)CC4)cc3)c(c2)CNC(=O)[C@@H]2CCCN2[C@H](C(=O)NC(C)(C)C)[C@H](C)NC(=O)[C@H]([C@@H](C)O)NC(=O)[C@H](CC(=O)O)NC1=O [Compound 390] | 8.3 | 0.2 | 2
7 | CC(C)C[C@@H]1NC(=O)c2ccc(-c3ccc(N4CCN(C(=O)[C@H]5CCC[C@H]5C(=O)N5CCN(c6ccc(-c7ccc8cc7CNC(=O)[C@@H]7CCCN7[C@H](C(=O)NC(C)(C)C)[C@H](C)NC(=O)[C@H]([C@@H](C)O)NC(=O)[C@H](CC(=O)O)NC(=O)[C@H](CC(C)C)NC8=O)cc6)CC5)CC4)cc3)c(c2)CNC(=O)[C@@H]2CCCN2[C@H](C(=O)NC(C)(C)C)[C@H](C)NC(=O)[C@H]([C@@H](C)O)NC(=O)[C@H](CC(=O)O)NC1=O [Compound 458] | 6.4 | 0.2 | 1.5
8 | CC(C)C[C@@H]1NC(=O)c2ccc(-c3ccc(N4CCN(C(=O)c5ccc(-c6ccc(C(=O)N7CCN(c8ccc(-c9ccc%10cc9CNC(=O)[C@@H]9CCCN9[C@H](C(=O)NC(C)(C)C)[C@H](C)NC(=O)[C@H]([C@@H](C)O)NC(=O)[C@H](CC(=O)O)NC(=O)[C@H](CC(C)C)NC%10=O)cc8)CC7)cc6)cc5)CC4)cc3)c(c2)CNC(=O)[C@@H]2CCCN2[C@H](C(=O)NC(C)(C)C)[C@H](C)NC(=O)[C@H]([C@@H](C)O)NC(=O)[C@H](CC(=O)O)NC1=O [Compound 474] | 19 | 0.4 | 7.1
9 | CC(C)C[C@@H]1NC(=O)c2ccc(-c3ccc(N4CCN(C(=O)c5nccnc5C(=O)N5CCN(c6ccc(-c7ccc8cc7CNC(=O)[C@@H]7CCCN7[C@H](C(=O)NC(C)(C)C)[C@H](C)NC(=O)[C@H]([C@@H](C)O)NC(=O)[C@H](CC(=O)O)NC(=O)[C@H](CC(C)C)NC8=O)cc6)CC5)CC4)cc3)c(c2)CNC(=O)[C@@H]2CCCN2[C@H](C(=O)NC(C)(C)C)[C@H](C)NC(=O)[C@H]([C@@H](C)O)NC(=O)[C@H](CC(=O)O)NC1=O [Compound 467] | 8.6 | 0.1 | 1
10 | CC(C)C[C@@H]1NC(=O)c2ccc(-c3ccc(N4CCN(C(=O)CCC(=O)N5CCN(c6ccc(-c7ccc8cc7CNC(=O)[C@@H]7CCCN7[C@H](C(=O)NC(C)(C)C)[C@H](C)NC(=O)[C@H]([C@@H](C)O)NC(=O)[C@H](CC(=O)O)NC(=O)[C@H](CC(C)C)NC8=O)cc6)CC5)CC4)cc3)c(c2)CNC(=O)[C@@H]2CCCN2[C@H](C(=O)NC(C)(C)C)[C@H](C)NC(=O)[C@H]([C@@H](C)O)NC(=O)[C@H](CC(=O)O)NC1=O [Compound 484] | 5.6 |  | 1.2
11 | CC(C)C[C@@H]1NC(=O)C[C@H](CCCCN)N(C)C(=O)[C@H](CCCCNC(=O)CCCCCCCCC(=O)NCCCC[C@@H]2NC(=O)[C@@H]3CCCN3[C@H](C(=O)NC(C)(C)C)[C@H](C)NC(=O)[C@H]([C@@H](C)O)NC(=O)[C@H](CC(=O)O)NC(=O)[C@H](CC(C)C)NC(=O)C[C@H](CCCCN)N(C)C2=O)NC(=O)[C@@H]2CCCN2[C@H](C(=O)NC(C)(C)C)[C@H](C)NC(=O)[C@H]([C@@H](C)O)NC(=O)[C@H](CC(=O)O)NC1=O [Compound 530] | 5.3 | 1.0 | 5.1
12 | CC(C)C[C@@H]1NC(=O)c2ccc(-c3ccc(N4CCN(C(=O)CC[C@H](N)C(=O)N5CCN(c6ccc(-c7ccc8cc7CNC(=O)[C@@H]7CCCN7[C@H](C(=O)NC(C)(C)C)[C@H](C)NC(=O)[C@H]([C@@H](C)O)NC(=O)[C@H](CC(=O)O)NC(=O)[C@H](CC(C)C)NC8=O)cc6)CC5)CC4)cc3)c(c2)CNC(=O)[C@@H]2CCCN2[C@H](C(=O)NC(C)(C)C)[C@H](C)NC(=O)[C@H]([C@@H](C)O)NC(=O)[C@H](CC(=O)O)NC1=O [Compound 494] | 9.4 | 0.2 | 1.9
